Data from patent publication US11213536B2, “Acylated compounds for the treatment of ocular pathologies” (CONSEJO SUPERIOR DE INVESTIGACIONES CIENTÍFICAS, priority 2016, dated 2022).

System: zebrafish larva (Danio rerio)
Assay: Neuroprotection in PTZ-induced neurotoxicity model, AChE activity in zebrafish larvae
Assay type: in vivo
Conditions: 5 dpf larvae, 10 μM, 5 mM PTZ for 6 hours
Protocol: The objective of this assay was to analyze the protective effect of compound 2 and of the resveratrol (RES) control in a model of neurotoxicity induced by the neurotoxin pentylenetetrazole (PTZ). As an experimental model, the zebrafish larva (Danio rerio) was used to study the effect of the compounds on acetylcholinesterase activity (AChE) in larvae at 5 days post-fertilization (dpf).
Zebrafish embryos were seeded in 50 ml of dilution water (AD) in a Petri dish and grown to 5 dpf (larval stage). […] Next, the larvae were transferred using a Pasteur pipette to a 24-well microplate, so that each well contained five larvae, making ten replicates per condition. First, the pre-treatment of the 5 dpf larvae was performed. […] After this incubation period, all of the larvae were examined, and it was determined that the general state of the larvae was totally normal, without any visible anomaly or anomalous behavior. […]
Determination of AChE levels. […] In addition, the determination of total protein of each experimental group was carried out according to the technical study protocol (Quantification of protein by BCA, as a normalization process). Finally, the AChE levels determined in the control group were taken as a reference measurement and deemed to be 100%.

## CCCCCCCC(=O)OCC1OC(Oc2cc(O)cc(/C=C/c3ccc(O)cc3)c2)C(O)C(O)C1O [Compound 2, trans-resveratrol-3-O-(6′-O-octanoyl)-β-D-glucopyranoside]
  AChE activity decrease induced by PTZ: significantly prevents the decrease in AChE activity
